Columns and labels:
Assay type in all cases: cell-based, mouse
[1] = test system: C2Cl2 myotube cells; assay: Detection of mitochondrial ROS; details: 1, 2.5, or 5 μg/mL, 24 hours
Method: (§1) The amber extract obtained through extraction by the method of Example 1 was analyzed for its action using myoblasts C2Cl2. The C2Cl2 cells are cells established from mouse regenerating muscles (striated muscles) and are considered to be derived from muscle satellite cells. The myoblasts, when cultured in a differentiation inducing medium, are fused and differentiated into myotube cells.
(§2) The C2Cl2 myoblasts were cultured in Dulbecco's modified Eagle medium (DMEM) supplemented with 10% FBS, penicillin (100 Us/ml), and streptomycin ([…]) under conditions of 37° C. and 5% CO2. Differentiation into myotube cells was induced by medium replacement with DMEM containing 2% horse serum when the cells reached 95% confluency. The experiment was carried out using the differentiated C2Cl2 myotube after 5 to 7 days from the induction of differentiation.
Accordingly, in order to confirm this, mitochondrial ROS was detected. C2Cl2 cells were inoculated at 0.5×10^4 cells/well to a 96-well plate and cultured at 37° C. for 48 hours until confluent. After induction of differentiation for 5 days in a differentiation inducing medium, the cells were treated with the amber extract ([…]) or succinic acid (1, 2.5, or 5 μg/mL) for 24 hours. The mitochondrial ROS was measured at 485/565 nm (excitation/fluorescence) using Mitochondrial ROS Detection Assay Kit (Cayman Chemical Company).

[2] = test system: C2Cl2 myotube cells; assay: Effect on intracellular ATP concentration (luciferin-luciferase system); details: 6 hours or 12 hours
Method: as §1, §2
Intracellular ATP levels were measured using a luciferin-luciferase system. C2Cl2 cells were inoculated at 0.5×10^4 cells/well to a 96-well plate and cultured at 37° C. for 48 hours until confluent. After induction of differentiation for 5 days, the cells were treated with the amber extract (25 or 50 μg/mL) prepared by the method of Example 1 or succinic acid (2.5 or 5 μg/mL) for 6 hours or 12 hours. The luminescence of each well was measured at 480/530 nm (excitation/luminescence) using a microplate reader (Synergy H1, BioTek Instruments).

[3] = test system: C2Cl2 myotube cells; assay: Detection of mitochondrial membrane potential (JC-1); details: 1, 2.5, or 5 μg/mL, 24 hours
Method: as §1, §2
Mitochondrial membrane potential serving as an indicator for mitochondrial activation was also analyzed. C2Cl2 cells were inoculated at 0.5×10^4 cells/well to a 96-well plate and cultured at 37° C. for 48 hours until confluent. […] The mitochondrial membrane potential was measured at green: 485/535 nm (excitation/fluorescence) and red: 535/595 nm (excitation/fluorescence) using JC-1 MitoMP Detection Kit (Dojindo Laboratories).

O=C(O)CCC(=O)O [succinic acid]
mitochondrial activation (mitochondrial ROS) [1]: no mitochondrial activation | ATP concentration ([2]; 2.5 μg/mL): no change | ATP concentration ([2]; 5 ug/mL): no change | mitochondrial activation (membrane potential) [3]: no mitochondrial activation
